From patent US20090257975A1, “Solid and Semi-Solid Polymeric Ionic Conjugates” (Pfizer Inc, priority 2002, published 2009)
≈ marks a conversion by molar mass, not a printed value. Structures can show the parent of a compound that is named as a salt.

Assay: Solubility determination of ziprasidone in pH 7.4 PBS (shaken vials, HPLC)
Format: physicochemical
Settings: concentration of ziprasidone in solution
Method: The following samples were evaluated for solubility: • 1. Ziprasidone-polymer ionic conjugate FIVE (40% ziprasidone, 60% polymer composed of Lactide/Glycolide/Malic acid at molar ratios of 4:1:0.65M) • 2. Ziprasidone-polymer ionic conjugate in gel former (Solution of Conjugate FIVE in a typical gel former, The conjugate was dissolved in a mixture (1:1 by weight) with a mixture of two gel formers made individually of PEG-400 grafted with Trimethylene carbonate/Caprolactone/Glycolide and PEG-400 grafted with Lactide/Glycolide • 3. Ziprasidone mesylate salt • 4. Ziprasidone free base
Excess of each of the above sample were placed in a screw-cap vial with 2 ml of pH 7.4, PBS (Dulbecco's Phosphate-Buffered Saline) solution, and the vials were shaken continuously for 7 days. Ziprasidone free base and its mesylate salt were used as controls. The concentration of ziprasidone in solution was determined at 15 minutes, 6 hours, 24 hours, and 7 days. The HPLC samples were prepared by filtering each suspension through a 0.22-μm syringe filter without any additional dilutions

| SMILES | solubility at 6 h (Dulbecco's phosphate-buffered saline (PBS), aqueous buffer, thermodynamic from solid, time point 6 hours) [µg/mL] | Solubility (time point 15 minutes) | Solubility (time point 7 days) | solubility at 15 min (Dulbecco's phosphate-buffered saline (PBS), aqueous buffer, thermodynamic from solid, time point 15 minutes) [µg/mL] | Solubility (time point 6 hours) [µg/mL] |
| --- | --- | --- | --- | --- | --- |
| O=C1Cc2cc(CCN3CCN(c4nsc5ccccc45)CC3)c(Cl)cc2N1 [Ziprasidone Free Base, 5-[2-[4-(1,2-benzisothiazol-3-yl)-1-piperazinyl]ethyl]-6-chloro-1,3-dihydro-2H-indol-2-one] | 0.2 (≈ 0.484 µM) | Below | Below |  |  |
| O=C1Cc2cc(CCN3CCN(c4nsc5ccccc45)CC3)c(Cl)cc2N1 [Ziprasidone Mesylate] |  |  | 1.3 µg/mL | 1.5 | 1.1 |
